The MIC is the lowest concentration found to suppress growth. What is called IC50 is the midpoint of a concentration-inhibition curve. Read a high IC50 as weaker potency. For orientation: AUC(0-inf) means total exposure, with the tail of the curve extrapolated. A high value points to more exposure. One may read the Cmax as the peak of the concentration-time curve. The term Tmax denotes the time from dosing to the highest level. Broadly, the clearance is the volume of plasma or blood freed of the substance per unit of time. High values mean a high capacity for elimination, low ones a low capacity for elimination. As usually defined, the half-life is the time needed for the level to fall by half in the phase considered. Low values mean rapid decline, high ones slow decline.

This note sets out measurements from patent US10273235B2, “Compositions and methods for inhibiting β-lactamase” (LegoChem Biosciences, Inc., priority 2015, dated 2019).

Counter-ions that a name gives are not always drawn.

For data set [1], the system named is K. pneumoniae CL5761. Description: MIC of strain used for extraction of enzymes, K. pneumoniae CL5761 (KPC-3, TEM-216, SHV-5). The class given is cell-based. The conditions noted are these: BLI: 4 ug/mL. As to the method: MIC90 (μg/mL) is the lowest concentration of an antibiotic that will inhibit the visible growth of 90% of microorganisms after incubation as compared with a control group to which the antibiotic is not treated.
MIC values were measured by the broth microdilution method developed by the Clinical and Laboratory Standards Institute (CLSI) (see CLSI M07-A9, Methods for Dilution Antimicrobial Susceptibility Test for Bacteria that Grow Aerobically; Approved Standard-Ninth Edition (2012): CLSI, Villanova, Pa.). The in vitro antibacterial activity was measured with respect to the following 9 clinical isolates: P. aeruginosa (3 strains); K. pneumoniae (6 strains). The in vitro antibacterial activity of selected compounds was measured with respect to the following 15 clinical isolates: K. pneumoniae (15 strains).

Data set [2] concerns E. coli ECO200. As to the kind of experiment: MIC of strain used for extraction of enzymes, E. coli ECO200 (NDM-1, TEM-1, CTX-M-15, EC (AmpC), OXA-2 type). The format is cell-based.
Data set [3] has as its system E. coli K0519020. Description: MIC of strain used for extraction of enzymes, E. coli K0519020 (CTX-M-15, TEM-1, OXA-1, AmpC (NC_000913)). The format is cell-based.
Data set [4] has as its system E. coli TOPDXA048. As to the kind of experiment: MIC of strain used for extraction of enzymes, E. coli TOPDXA048 (OXA-48, TEM-116, AmpC (NC_000913)). The format is cell-based.
The test system of data set [5] is E. aerogenes K9911729. Description: MIC of strain used for extraction of enzymes, E. aerogenes K9911729 (CMY-10, TEM-1, SHV-12, AmpC (DQ478697)). The class given is cell-based.
Data set [6] concerns the target KPC-3 β-lactamase (class A) (Klebsiella pneumoniae, UniProt Q9F663, H272Y). As to the kind of experiment: Inhibitory activity against β-lactamases (nitrocefin), KPC-3. The format is biochemical, K. pneumoniae. As to the method: (§1) More diluted stocks were prepared as necessary. Enzyme activity was determined by monitoring the change of absorbance at 492 nm using the characteristic molecular extinction coefficient (Δε492=17,400 M^−1 cm^−1) of nitrocefin by a Shimazu UV-1650PC spectrophotometer. The nitrocefin was purchased from OXOID. Kinetic measurements were run at 30° C. in 10 mM MES[2-(N-morpholino)ethanesulfonic acid]buffer (pH 6.8) or 10 mM MES[2-(N-morpholino)ethanesulfonic acid] buffer (pH 6.8), […] BSA and 50 mM sodium bicarbonate. Reactions were performed in 2.5 mL cuvettes with 100 μM nitrocefin and initiated by adding 1.5 nM to 2.5 nM enzyme. The first 180 s of each reaction was used to measure initial rates. Data were evaluated using Microsoft Excel. Concentration dependent inhibition of enzyme was measured using different concentrations of inhibitors resulting from two-fold dilution series. Reaction progress at every concentration of inhibitor was measured in triplicates. IC50 values were calculated using 4-parameter log fits using XL Fit curve fitting software (www.idbs.com) for Excel using the following equation:
(§2) [formula] where y is the remaining enzyme activity (in %) and x is the corresponding concentration. he fitted IC50 parameter is the relative IC50, and is defined as the concentration giving a response half way between the fitted top (B) and bottom (A) of the curve.

Data set [7] addresses T1, NDM-1 β-lactamase (class B) (Klebsiella pneumoniae, UniProt C7C422).
T1 construct: MICs of bacterial strains used for extraction of enzymes; endogenous in cells; host or cells: bacterial strain carrying NDM-1 (E. coli according to the earlier reading)
Description: Inhibitory activity against β-lactamases (nitrocefin), NDM-1. As to conditions: 100 μM nitrocefin, 30° C., pH 6.8. The format is biochemical. As to the method:
as §1, §2

For data set [8], the target named is T2, CMY-10 β-lactamase (class C) (Klebsiella aerogenes, UniProt Q99QC1).
T2 construct: MICs of bacterial strains used for extraction of enzymes; endogenous in cells
T2 sequence (Q99QC1 24-382): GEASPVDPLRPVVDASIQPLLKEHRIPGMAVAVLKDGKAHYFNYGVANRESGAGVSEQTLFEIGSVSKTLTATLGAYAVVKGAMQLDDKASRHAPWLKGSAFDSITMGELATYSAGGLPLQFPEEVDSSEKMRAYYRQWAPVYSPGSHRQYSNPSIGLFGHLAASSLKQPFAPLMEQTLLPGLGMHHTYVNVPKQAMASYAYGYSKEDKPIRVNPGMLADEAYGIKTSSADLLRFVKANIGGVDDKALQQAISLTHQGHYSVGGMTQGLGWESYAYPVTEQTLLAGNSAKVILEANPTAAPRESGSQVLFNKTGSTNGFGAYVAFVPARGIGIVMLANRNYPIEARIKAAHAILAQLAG
As to the kind of experiment: Inhibitory activity against β-lactamases (nitrocefin), CMY-10. The format is biochemical. As to the method: as §1, §2

Data set [9] addresses T3, OXA-48 β-lactamase (class D) (Klebsiella pneumoniae, UniProt Q6XEC0).
T3 construct: MICs of bacterial strains used for extraction of enzymes; endogenous in cells; host or cells: bacterial strain carrying OXA-48 (E. coli according to the earlier reading)
Description: Inhibitory activity against β-lactamases (nitrocefin), OXA-48. The class given is biochemical. As to conditions: 100 μM nitrocefin, 30° C., pH 6.8. As to the method:
as §1, §2

A short description of data set [10]: Mouse pharmacokinetics. The class given is in vivo, ICR mouse. As to conditions: IV, 50 mg/kg, plasma. As to the method:
The pharmacokinetics values were evaluated in a mouse model. The test compound (50 mg/kg) was injected into the tail vein of 8 week old ICR mouse, weighing approximately 26-30 g. […] Lab conditions were temperature of 22±3° C. and humidity of 50±20%.

T3 sequence (Q6XEC0 23-265, looked up): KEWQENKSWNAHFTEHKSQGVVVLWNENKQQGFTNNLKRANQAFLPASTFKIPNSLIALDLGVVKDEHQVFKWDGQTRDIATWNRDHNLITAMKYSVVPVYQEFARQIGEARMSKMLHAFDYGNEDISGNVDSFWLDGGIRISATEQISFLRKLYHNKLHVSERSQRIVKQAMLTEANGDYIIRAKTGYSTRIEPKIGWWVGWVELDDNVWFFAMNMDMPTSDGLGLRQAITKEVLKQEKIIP
T1 sequence (C7C422 29-270, looked up): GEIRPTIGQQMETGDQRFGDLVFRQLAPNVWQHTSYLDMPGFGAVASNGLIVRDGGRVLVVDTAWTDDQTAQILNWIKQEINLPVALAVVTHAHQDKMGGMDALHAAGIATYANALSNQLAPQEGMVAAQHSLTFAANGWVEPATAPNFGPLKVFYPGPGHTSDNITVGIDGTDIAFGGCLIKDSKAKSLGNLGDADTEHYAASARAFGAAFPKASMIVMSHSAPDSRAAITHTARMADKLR
Chain of KPC-3 β-lactamase (class A) (Q9F663 25-293 H272Y): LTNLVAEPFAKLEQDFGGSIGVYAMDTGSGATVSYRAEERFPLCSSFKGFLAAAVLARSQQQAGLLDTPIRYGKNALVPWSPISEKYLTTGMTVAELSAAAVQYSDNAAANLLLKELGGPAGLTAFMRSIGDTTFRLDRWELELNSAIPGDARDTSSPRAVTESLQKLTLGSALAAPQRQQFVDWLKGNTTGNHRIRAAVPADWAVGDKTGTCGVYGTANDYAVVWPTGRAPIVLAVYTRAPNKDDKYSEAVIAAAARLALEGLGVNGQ

In the case of `O=C1N2C[C@@H](CC[C@H]2C2=NO[C@]3(CCNC3)C2)N1OS(=O)(=O)O` [Example 17, [(2S,5R)-2-[(5R)-1-oxa-2,7-diazaspiro[4.4]non-2-en-3-yl]-7-oxo-1,6-diazabicyclo[3.2.1]octan-6-yl] hydrogen sulfate], the “MIC of Meropenem with BLI” value in data set [1] is 0.5 mg/L; in data set [2] (BLI: 4 ug/mL), <0.0312 mg/L; in data set [3] (BLI: 4 ug/mL), 0.0625 mg/L; in data set [4] (BLI: 4 ug/mL), <0.0312 mg/L; in data set [5] (BLI: 4 ug/mL) it was <0.0312 mg/L. For the same compound, the MIC was 0.125 mg/L in data set [1] (Klebsiella pneumoniae, CL5761, read-out: MIC of LCB10-0200 with BLI); < 0.0312 mg/L in [2] (Escherichia coli, ECO200, read-out: MIC of LCB10-0200 with BLI); < 0.0312 mg/L in data set [3] (Escherichia coli, K0519020, read-out: MIC of LCB10-0200 with BLI); < 0.0312 mg/L in data set [4] (Escherichia coli, TOPDXA048, read-out: MIC of LCB10-0200 with BLI); < 0.0312 mg/L in [5] (Klebsiella aerogenes, K9911729, read-out: MIC of LCB10-0200 with BLI). The IC50 in data set [6] was 2.74 µM; in [7], 1190 µM; in [8], 0.185 µM; in data set [9], 29.5 µM. The AUC(0-inf) in data set [10] (ICR) was 31 ± 0.5 µg·h/mL. The Cmax in data set [10] (ICR) was found to be 64.2 ± 3.88 µg/mL. The Tmax in data set [10] (ICR) is 4.8 min. Moreover, the clearance in [10] (ICR) was 1.62 L/h/kg. The compound also had a half-life in [10] (ICR) of 75 ± 9 min. Besides, the Vd in [10] (ICR, read-out: Vss) came to 1.81 ± 0.14 L/kg. In data set [10], the AUCnorm stood at 0.62 ± 0.01 kg·h/L. The “Cmax, norm” value in data set [10] worked out at 1.28 ± 0.08 kg/L.
